Test results as given in PubChem BioAssay AID248 (DTP/NCI, 2004).
Where “and” joins values, the source holds several entries; their conditions need not be identical. Identical values can stand only once. Toxic doses and inconclusive results are not listed.

Test system: L1210 leukemia ip in BDF1 mice, survival T/C
Assay: NCI In Vivo Anticancer Drug Screen. Data for tumor model L1210 Leukemia (intraperitoneal) in B6D2F1 (BDF1) mice
Details: endpoint: mean survival time, higher = longer survival
How it was run: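 Antitumor effect is assessed in tumor-bearing animals. Survival in the compound arm is compared with a vehicle-dosed control arm and expressed as their quotient.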

[1] = dose: 100.0 mg/kg/injection, schedule: Q04DX003 (ip), vehicle: Klucel (hydroxypropylcellulose) (HPC)
[2] = dose: 200.0 mg/kg/injection, schedule: Q04DX003 (ip), vehicle: Klucel (hydroxypropylcellulose) (HPC)
[3] = dose: 100.0 mg/kg/injection, schedule: Q01DX009 (ip), vehicle: Klucel (hydroxypropylcellulose) (HPC)
[4] = dose: 200.0 mg/kg/injection, schedule: Q01DX009 (ip), vehicle: Klucel (hydroxypropylcellulose) (HPC)
[5] = dose: 400.0 mg/kg/injection, schedule: Q04DX003 (ip), vehicle: Klucel (hydroxypropylcellulose) (HPC)
[6] = dose: 400.0 mg/kg/injection, schedule: Q01DX009 (ip), vehicle: Klucel (hydroxypropylcellulose) (HPC)
[7] = dose: 100.0 mg/kg/injection, schedule: Q01DX001 (ip), vehicle: saline
[8] = dose: 200.0 mg/kg/injection, schedule: Q01DX001 (ip), vehicle: saline
[9] = dose: 400.0 mg/kg/injection, schedule: Q01DX001 (ip), vehicle: saline

## O=C(O)c1ccc(P(=O)(O)O)cc1[N+](=O)[O-]
dose: 50.0 mg/kg/injection, schedule: Q04DX003 (ip), vehicle: saline
  T/C: 95 % of control
dose: 100.0 mg/kg/injection, schedule: Q04DX003 (ip), vehicle: saline
  T/C: 100 % of control

## CN(C)c1ccc(N=Nc2ccccc2)c2cccnc12
dose: 6.25 mg/kg/injection, schedule: Q01DX009 (ip), vehicle: DMSO
  T/C: 103 % of control
dose: 12.5 mg/kg/injection, schedule: Q01DX009 (ip), vehicle: DMSO
  T/C: 94 % of control
dose: 25.0 mg/kg/injection, schedule: Q01DX009 (ip), vehicle: DMSO
  T/C: 96 % of control
dose: 50.0 mg/kg/injection, schedule: Q01DX009 (ip), vehicle: DMSO
  T/C: 92 % of control
dose: 100.0 mg/kg/injection, schedule: Q01DX009 (ip), vehicle: DMSO
  T/C: 96 % of control
dose: 100.0 mg/kg/injection, schedule: Q04DX003 (ip), vehicle: DMSO
  T/C: 94 % of control
dose: 200.0 mg/kg/injection, schedule: Q04DX003 (ip), vehicle: DMSO
  T/C: 88 % of control
dose: 400.0 mg/kg/injection, schedule: Q04DX003 (ip), vehicle: DMSO
  T/C: 90 % of control

## c1ccc(C(N2CCCCC2)N2CCCCC2)cc1
[1]
  T/C: 106 % of control
[2]
  T/C: 103 % of control

## Cc1cc(C)n(CO)n1
[3]
  T/C: 107 % of control
[1]
  T/C: 100 % of control
[4]
  T/C: 108 % of control
[2]
  T/C: 110 % of control
[5]
  T/C: 112 % of control

## Cc1ccc2[nH]c(C)c(C3=CC(=O)c4ccccc4C3=O)c2c1
dose: 100.0 mg/kg/injection, schedule: Q01DX001 (ip), vehicle: other
  T/C: 97 % of control
dose: 200.0 mg/kg/injection, schedule: Q01DX001 (ip), vehicle: other
  T/C: 92 % of control

## N#CCCCC(=O)c1ccccc1
dose: 25.0 mg/kg/injection, schedule: Q01DX009 (ip), vehicle: saline with Tween-80
  T/C: 96 % of control
dose: 50.0 mg/kg/injection, schedule: Q01DX009 (ip), vehicle: saline with Tween-80
  T/C: 102 % of control
dose: 100.0 mg/kg/injection, schedule: Q01DX009 (ip), vehicle: saline with Tween-80
  T/C: 92 % of control

## CCOC(=O)c1ccc(NC(=O)Nc2cc(Cl)c(OC)cc2OC)cc1
[3]
  T/C: 98 % of control
[4]
  T/C: 95 % of control
[6]
  T/C: 105 % of control

## CC(C)C(C)(C)NC(N)=O
[7]
  T/C: 102 % of control
[8]
  T/C: 104 % of control
[9]
  T/C: 104 % of control

## CC(C)(C)c1cc(Br)c(O)c(C(=O)O)c1
dose: 200.0 mg/kg/injection, schedule: Q01DX001 (ip), vehicle: carboxymethylcellulose (CMC)
  T/C: 98 % of control

## CCCCCCCCCCCCCCCCN(C(C)c1ccccc1)S(=O)(=O)c1ccc(OC)c(N)c1 (stereo not given)
dose: 100.0 mg/kg/injection, schedule: Q01DX001 (ip), vehicle: Klucel (hydroxypropylcellulose) (HPC)
  T/C: 93 % of control
[3]
  T/C: 94 % of control
[1]
  T/C: 98 % of control
dose: 200.0 mg/kg/injection, schedule: Q01DX001 (ip), vehicle: Klucel (hydroxypropylcellulose) (HPC)
  T/C: 88 % of control
[4]
  T/C: 94 % of control
[2]
  T/C: 98 % of control
dose: 400.0 mg/kg/injection, schedule: Q01DX001 (ip), vehicle: Klucel (hydroxypropylcellulose) (HPC)
  T/C: 88 % of control
[6]
  T/C: 95 % of control
[5]
  T/C: 98 % of control

## O=C1c2cscc2C(=O)c2sccc21
dose: 100.0 mg/kg/injection, schedule: Q01DX001 (ip), vehicle: saline with Tween-80
  T/C: 100 % of control
dose: 200.0 mg/kg/injection, schedule: Q01DX001 (ip), vehicle: saline with Tween-80
  T/C: 102 % of control
dose: 400.0 mg/kg/injection, schedule: Q01DX001 (ip), vehicle: saline with Tween-80
  T/C: 96 % of control

## O=S1(=O)CC(c2ccccc2)=NN=C(c2ccccc2)C1
[7]
  T/C: 92 % of control
[8]
  T/C: 86 % of control
[9]
  T/C: 92 % of control

## CCCC(C)c1cc([N+](=O)[O-])cc([N+](=O)[O-])c1O (stereo not given)
dose: 3.12 mg/kg/injection, schedule: Q01DX009 (ip), vehicle: saline with Tween-80
  T/C: 107 % of control
dose: 6.25 mg/kg/injection, schedule: Q01DX009 (ip), vehicle: saline with Tween-80
  T/C: 98 % of control
dose: 12.5 mg/kg/injection, schedule: Q01DX009 (ip), vehicle: saline with Tween-80
  T/C: 91 % of control

## CC1CN=C(c2ccc(NC(=O)c3ccc(C(=O)Nc4ccc(C5=NCC(C)N5)cc4)cc3)cc2)N1 (stereo not given)
dose: 0.5 mg/kg/injection, schedule: Q01DX Z (ip), vehicle: carboxymethylcellulose (CMC)
  T/C: 100 % of control
dose: 1.0 mg/kg/injection, schedule: Q01DX Z (ip), vehicle: carboxymethylcellulose (CMC)
  T/C: 117 % of control
dose: 1.0 mg/kg/injection, schedule: Q01DX Z (ip), vehicle: saline
  T/C: 119 % of control
dose: 1.9 mg/kg/injection, schedule: Q01DX Z (ip), vehicle: carboxymethylcellulose (CMC)
  T/C: 198 % of control
dose: 2.9 mg/kg/injection, schedule: Q01DX Z (ip), vehicle: carboxymethylcellulose (CMC)
  T/C: 173 % of control and 193 % of control
dose: 3.8 mg/kg/injection, schedule: Q01DX Z (ip), vehicle: carboxymethylcellulose (CMC)
  T/C: 228 % of control
dose: 4.3 mg/kg/injection, schedule: Q01DX Z (ip), vehicle: carboxymethylcellulose (CMC)
  T/C: 157 % of control
dose: 6.5 mg/kg/injection, schedule: Q01DX Z (ip), vehicle: carboxymethylcellulose (CMC)
  T/C: 207 % of control
dose: 7.5 mg/kg/injection, schedule: Q01DX Z (ip), vehicle: carboxymethylcellulose (CMC)
  T/C: 337 % of control
dose: 9.7 mg/kg/injection, schedule: Q01DX Z (ip), vehicle: carboxymethylcellulose (CMC)
  T/C: 205 % of control
dose: 15.0 mg/kg/injection, schedule: Q01DX Z (ip), vehicle: carboxymethylcellulose (CMC)
  T/C: 243 % of control
dose: 30.0 mg/kg/injection, schedule: Q01DX Z (ip), vehicle: carboxymethylcellulose (CMC)
  T/C: 175 % of control
dose: 30.0 mg/kg/injection, schedule: Q01DX Z (oral), vehicle: carboxymethylcellulose (CMC)
  T/C: 97 % of control
dose: 32.8 mg/kg/injection, schedule: Q01DX Z (ip), vehicle: carboxymethylcellulose (CMC)
  T/C: 151 % of control
dose: 60.0 mg/kg/injection, schedule: Q01DX Z (ip), vehicle: saline
  T/C: 119 % of control
dose: 60.0 mg/kg/injection, schedule: Q01DX Z (oral), vehicle: carboxymethylcellulose (CMC)
  T/C: 94 % of control
dose: 62.5 mg/kg/injection, schedule: Q## X010 (oral), vehicle: saline
  T/C: 102 % of control
dose: 74.0 mg/kg/injection, schedule: Q01DX Z (ip), vehicle: carboxymethylcellulose (CMC)
  T/C: 114 % of control
dose: 111.0 mg/kg/injection, schedule: Q01DX Z (ip), vehicle: carboxymethylcellulose (CMC)
  T/C: 101 % of control
dose: 120.0 mg/kg/injection, schedule: Q01DX Z (ip), vehicle: saline
  T/C: 114 % of control
dose: 120.0 mg/kg/injection, schedule: Q01DX Z (oral), vehicle: carboxymethylcellulose (CMC)
  T/C: 97 % of control
dose: 125.0 mg/kg/injection, schedule: Q## X010 (oral), vehicle: saline
  T/C: 102 % of control
dose: 240.0 mg/kg/injection, schedule: Q01DX Z (oral), vehicle: carboxymethylcellulose (CMC)
  T/C: 94 % of control
dose: 250.0 mg/kg/injection, schedule: Q## X010 (oral), vehicle: saline
  T/C: 102 % of control
dose: 375.0 mg/kg/injection, schedule: Q01DX Z (ip), vehicle: carboxymethylcellulose (CMC)
  T/C: 117 % of control
dose: 500.0 mg/kg/injection, schedule: Q## X010 (oral), vehicle: saline
  T/C: 103 % of control

## C[Si](C)(C)c1c(F)c(F)cc(F)c1F
[3]
  T/C: 98 % of control
[1]
  T/C: 98 % of control
[4]
  T/C: 112 % of control
[2]
  T/C: 95 % of control
[6]
  T/C: 94 % of control
[5]
  T/C: 97 % of control

## ClC(c1ccccc1)C1(Cl)C=c2ccccc2=C1 (stereo not given)
[3]
  T/C: 98 % of control
[1]
  T/C: 102 % of control
[4]
  T/C: 98 % of control
[2]
  T/C: 92 % of control
[6]
  T/C: 95 % of control
[5]
  T/C: 96 % of control

## O=C(NCCc1c[nH]c2ccccc12)C(=O)NCCc1c[nH]c2ccccc12
[1]
  T/C: 108 % of control
[2]
  T/C: 93 % of control
[5]
  T/C: 93 % of control

## CSc1ccc2[nH]c3c(c2c1)CCNC3
dose: 100.0 mg/kg/injection, schedule: Q04DX003 (ip), vehicle: saline with Tween-80
  T/C: 108 % of control
dose: 200.0 mg/kg/injection, schedule: Q04DX003 (ip), vehicle: saline with Tween-80
  T/C: 105 % of control
dose: 400.0 mg/kg/injection, schedule: Q04DX003 (ip), vehicle: saline with Tween-80
  T/C: 98 % of control

## ClC(Cl)=C1C(Cl)=C(Cl)C(Cl)=C1Cl
dose: 50.0 mg/kg/injection, schedule: Q01DX009 (ip), vehicle: Klucel (hydroxypropylcellulose) (HPC)
  T/C: 97 % of control
dose: 50.0 mg/kg/injection, schedule: Q04DX003 (ip), vehicle: Klucel (hydroxypropylcellulose) (HPC)
  T/C: 96 % of control
[3]
  T/C: 100 % of control
[1]
  T/C: 96 % of control
[4]
  T/C: 94 % of control
[2]
  T/C: 93 % of control

## OCCCCOc1ccccc1
[7]
  T/C: 105 % of control
[8]
  T/C: 100 % of control
[9]
  T/C: 96 % of control
